Assay results published in PubChem BioAssay (NCI).
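In this assay, cells in 96-well plates receive the compound at five concentrations for 48 hours. Endpoints are linearly interpolated between the surrounding concentrations. GI50 = concentration required for 50% inhibition of growth. TGI denotes the concentration required for complete inhibition of growth.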 *1 amine or outer side, *2 acyl side, *3 side chain or, on linkers, in order; H or OH if unused. Where a SMILES comes first, the peptide text is derived from it. [ ]: non-standard residue; d: D form. The star is where a group is joined. X11 = C/C=C/CC(C)C(O)[C@H](N[*:1])C(=O)[*:2]; Decanoyl = CCCCCCCCCC(=O)*; Leu(ol) = CC(C)C[C@H](N)CO; Iva = CC[C@](C)(N)C(=O)O; Aib = CC(C)(N)C(=O)O

Experiments:
Assay in all cases: NCI-60 cell line screen, 48 h
786-0 renal = test system: 786-0 renal
A498 renal = test system: A498 renal
A549 NSCLC = test system: A549 NSCLC
ACHN renal = test system: ACHN renal
BT-549 breast = test system: BT-549 breast
CAKI-1 renal = test system: CAKI-1 renal
CCRF-CEM leukemia = test system: CCRF-CEM leukemia
COLO 205 colon = test system: COLO 205 colon
DU-145 prostate = test system: DU-145 prostate
EKVX NSCLC = test system: EKVX NSCLC
HCC-2998 colon = test system: HCC-2998 colon
HCT-116 colon = test system: HCT-116 colon
HCT-15 colon = test system: HCT-15 colon
HL-60(TB) leukemia = test system: HL-60(TB) leukemia
HOP-62 NSCLC = test system: HOP-62 NSCLC
HOP-92 NSCLC = test system: HOP-92 NSCLC
HS 578T breast = test system: HS 578T breast
HT29 colon = test system: HT29 colon
IGROV1 ovarian = test system: IGROV1 ovarian
K-562 leukemia = test system: K-562 leukemia
KM12 colon = test system: KM12 colon
LOX IMVI melanoma = test system: LOX IMVI melanoma
M14 melanoma = test system: M14 melanoma
MALME-3M melanoma = test system: MALME-3M melanoma
MCF7 breast = test system: MCF7 breast
MDA-MB-231 breast = test system: MDA-MB-231 breast
MDA-MB-435 = test system: MDA-MB-435
MOLT-4 leukemia = test system: MOLT-4 leukemia
NCI-H226 lung = test system: NCI-H226 lung
NCI-H23 lung = test system: NCI-H23 lung
NCI-H460 lung = test system: NCI-H460 lung
NCI-H522 lung = test system: NCI-H522 lung
NCI/ADR-RES ovarian = test system: NCI/ADR-RES ovarian
OVCAR-3 ovarian = test system: OVCAR-3 ovarian
OVCAR-4 ovarian = test system: OVCAR-4 ovarian
OVCAR-5 ovarian = test system: OVCAR-5 ovarian
OVCAR-8 ovarian = test system: OVCAR-8 ovarian
PC-3 prostate = test system: PC-3 prostate
RPMI-8226 leukemia = test system: RPMI-8226 leukemia
RXF 393 renal = test system: RXF 393 renal
SF-268 CNS = test system: SF-268 CNS
SF-295 CNS = test system: SF-295 CNS
SF-539 CNS = test system: SF-539 CNS
SK-MEL-2 melanoma = test system: SK-MEL-2 melanoma
SK-MEL-28 melanoma = test system: SK-MEL-28 melanoma
SK-MEL-5 melanoma = test system: SK-MEL-5 melanoma
SK-OV-3 ovarian = test system: SK-OV-3 ovarian
SN12C renal = test system: SN12C renal
SNB-19 CNS = test system: SNB-19 CNS
SNB-75 CNS = test system: SNB-75 CNS
SR leukemia = test system: SR leukemia
SW-620 colon = test system: SW-620 colon
T-47D breast = test system: T-47D breast
TK-10 renal = test system: TK-10 renal
U251 CNS = test system: U251 CNS
UACC-257 melanoma = test system: UACC-257 melanoma
UACC-62 melanoma = test system: UACC-62 melanoma
UO-31 renal = test system: UO-31 renal

With C/C=C/CC(C)C(O)[C@H](NC(=O)[C@@H]1CCCN1C(=O)C(C)(C)NC(=O)CCCCCCCCC)C(=O)N[C@@](C)(CC)C(=O)N[C@@H](CCC(N)=O)C(=O)N[C@H](CCC(N)=O)C(=O)NC(C)(C)C(=O)NC(C)(C)C(=O)N[C@@H](CCC(N)=O)C(=O)N[C@H](CC(C)C)C(=O)N[C@H](CO)CC(C)C (stereo partly drawn) (Decanoyl-[Aib]P[X11][Iva]Q[dQ][Aib][Aib]Q[dL][Leu(ol)]) the GI50 (786-0 renal) was 1.81 µM, the TGI (786-0 renal) was 3.35 µM and the GI50 (A498 renal) was 1.94 µM. It also gave a TGI (A498 renal) of 3.68 µM, a GI50 (A549 NSCLC) of 3.02 µM and a TGI (A549 NSCLC) of 9.38 µM. The GI50 (ACHN renal) was 2.45 µM, the TGI (ACHN renal) was 6.09 µM and the GI50 (BT-549 breast) was 1.98 µM. It also gave a TGI (BT-549 breast) of 3.67 µM, a GI50 (CAKI-1 renal) of 2.13 µM and a TGI (CAKI-1 renal) of 5.02 µM. The GI50 (CCRF-CEM leukemia) was 2.04 µM, the TGI (CCRF-CEM leukemia) was 4.4 µM and the GI50 (COLO 205 colon) was 2 µM. For the same molecule, the TGI (COLO 205 colon) was 4.44 µM, the GI50 (DU-145 prostate) was 1.73 µM and the TGI (DU-145 prostate) was 3.13 µM. The GI50 (EKVX NSCLC) was 1.85 µM, the TGI (EKVX NSCLC) was 3.77 µM and the GI50 (HCC-2998 colon) was 2.16 µM. For the same molecule, the TGI (HCC-2998 colon) was 4.63 µM, the GI50 (HCT-116 colon) was 2.41 µM and the TGI (HCT-116 colon) was 6.09 µM. It also gave a GI50 (HCT-15 colon) of 2.54 µM, a TGI (HCT-15 colon) of 6.93 µM and a GI50 (HL-60(TB) leukemia) of 1.93 µM. For the same molecule, the TGI (HL-60(TB) leukemia) was 4.12 µM, the GI50 (HOP-62 NSCLC) was 1.99 µM and the TGI (HOP-62 NSCLC) was 4.06 µM. For the same molecule, the GI50 (HOP-92 NSCLC) was 1.84 µM, the TGI (HOP-92 NSCLC) was 4.08 µM and the GI50 (HS 578T breast) was 1.78 µM. It also gave a TGI (HS 578T breast) of 3.49 µM, a GI50 (HT29 colon) of 2.41 µM and a TGI (HT29 colon) of 5.68 µM. For the same molecule, the GI50 (IGROV1 ovarian) was 2.34 µM, the TGI (IGROV1 ovarian) was 6.31 µM and the GI50 (K-562 leukemia) was 1.95 µM. It also gave a TGI (K-562 leukemia) of 4 µM, a GI50 (KM12 colon) of 1.95 µM and a TGI (KM12 colon) of 3.94 µM. For the same molecule, the GI50 (LOX IMVI melanoma) was 1.73 µM, the TGI (LOX IMVI melanoma) was 3.3 µM and the GI50 (M14 melanoma) was 1.81 µM. It also gave a TGI (M14 melanoma) of 3.44 µM, a GI50 (MALME-3M melanoma) of 1.56 µM and a TGI (MALME-3M melanoma) of 2.96 µM. The GI50 (MCF7 breast) was 1.81 µM, the TGI (MCF7 breast) was 3.51 µM and the GI50 (MDA-MB-231 breast) was 1.71 µM. For the same molecule, the TGI (MDA-MB-231 breast) was 3.16 µM, the GI50 (MDA-MB-435) was 1.68 µM and the TGI (MDA-MB-435) was 3.05 µM. It also gave a GI50 (MOLT-4 leukemia) of 2.33 µM, a TGI (MOLT-4 leukemia) of 4.93 µM and a GI50 (NCI-H226 lung) of 2.07 µM. For the same molecule, the TGI (NCI-H226 lung) was 4.56 µM, the GI50 (NCI-H23 lung) was 2.32 µM and the TGI (NCI-H23 lung) was 5.42 µM. The GI50 (NCI-H460 lung) was 1.86 µM, the TGI (NCI-H460 lung) was 3.45 µM and the GI50 (NCI-H522 lung) was 1.7 µM. It also gave a TGI (NCI-H522 lung) of 3.36 µM, a GI50 (NCI/ADR-RES ovarian) of 2.04 µM and a TGI (NCI/ADR-RES ovarian) of 4.45 µM. The GI50 (OVCAR-3 ovarian) was 2.02 µM, the TGI (OVCAR-3 ovarian) was 4.35 µM and the GI50 (OVCAR-4 ovarian) was 3.91 µM. For the same molecule, the TGI (OVCAR-4 ovarian) was 9.05 µM, the GI50 (OVCAR-5 ovarian) was 1.73 µM and the TGI (OVCAR-5 ovarian) was 3.29 µM. The GI50 (OVCAR-8 ovarian) was 1.84 µM, the TGI (OVCAR-8 ovarian) was 3.99 µM and the GI50 (PC-3 prostate) was 1.84 µM. The TGI (PC-3 prostate) was 3.65 µM, the GI50 (RPMI-8226 leukemia) was 2.05 µM and the TGI (RPMI-8226 leukemia) was 4.51 µM. It also gave a GI50 (RXF 393 renal) of 2.15 µM, a TGI (RXF 393 renal) of 4.01 µM and a GI50 (SF-268 CNS) of 1.83 µM. It also gave a TGI (SF-268 CNS) of 3.56 µM, a GI50 (SF-295 CNS) of 1.76 µM and a TGI (SF-295 CNS) of 3.32 µM. The GI50 (SF-539 CNS) was 1.76 µM, the TGI (SF-539 CNS) was 3.17 µM and the GI50 (SK-MEL-2 melanoma) was 1.81 µM. It also gave a TGI (SK-MEL-2 melanoma) of 3.49 µM, a GI50 (SK-MEL-28 melanoma) of 1.76 µM and a TGI (SK-MEL-28 melanoma) of 3.16 µM. The GI50 (SK-MEL-5 melanoma) was 1.79 µM, the TGI (SK-MEL-5 melanoma) was 3.3 µM and the GI50 (SK-OV-3 ovarian) was 3.85 µM. The TGI (SK-OV-3 ovarian) was 8.71 µM, the GI50 (SN12C renal) was 2.17 µM and the TGI (SN12C renal) was 4.92 µM. The GI50 (SNB-19 CNS) was 1.7 µM, the TGI (SNB-19 CNS) was 3.15 µM and the GI50 (SNB-75 CNS) was 1.48 µM. For the same molecule, the TGI (SNB-75 CNS) was 2.98 µM, the GI50 (SR leukemia) was 1.37 µM and the TGI (SR leukemia) was 3.07 µM. For the same molecule, the GI50 (SW-620 colon) was 2.75 µM, the TGI (SW-620 colon) was 7.17 µM and the GI50 (T-47D breast) was 2.31 µM. It also gave a TGI (T-47D breast) of 5.95 µM, a GI50 (TK-10 renal) of 2.13 µM and a TGI (TK-10 renal) of 4.93 µM. The GI50 (U251 CNS) was 1.75 µM, the TGI (U251 CNS) was 3.36 µM and the GI50 (UACC-257 melanoma) was 1.77 µM. The TGI (UACC-257 melanoma) was 3.37 µM, the GI50 (UACC-62 melanoma) was 1.75 µM and the TGI (UACC-62 melanoma) was 3.38 µM. It also gave a GI50 (UO-31 renal) of 1.56 µM and a TGI (UO-31 renal) of 3.12 µM.
